Test results from patent US9663511B2, “Sphingosine 1-phosphate receptor antagonists” (ARROYO BIOSCIENCES, LLC, priority 2012, dated 2017).
Values joined by “and” are separate entries in the source; they are usually repeats but may differ in a detail not shown here. Equal entries are not always repeated. Where two headings read alike, the source gives them in different places. Marks after values point to notes of the source that are not given here.

How the values were obtained:
[1] = molecular target: S1P2 receptor (Homo sapiens (Human), UniProt O95136); experiment: Antagonist assay (FLIPR TETRA, inhibition of reference agonist EC80) on S1P2; assay type: cell-based; settings: tested as the citrate salt
Description: (§1) Antagonist percentage inhibition determinations were obtained by assaying sample compounds and referencing the control (EC80) wells for each profiled (GPCR) which evaluated binding to S1P2 and S1P5 receptors. The samples were run using a single addition assay protocol. The protocol design is as follows.
(§2) Unless specified otherwise, the sample compounds were diluted in 100% anhydrous DMSO including all dilutions. The compounds were tested as the citrate salt (1 equivalent per molecule). If the sample compound is provided in a different solvent all master stock dilutions are performed in the specified solvent. All control wells contained identical solvent final concentrations as the sample compound wells.
(§3) The sample compounds were transferred from a master stock solution into a daughter plate that was used in the assay. Each sample compound was diluted into an assay buffer (1×HBSS with 20 mM HEPES, 2.5 mM Probenecid, and 0.4% Free Fatty Acid BSA) at an appropriate concentration to obtain final specified concentrations.
(§4) Using the EC80 values that were determined real-time, stimulated all pre-incubated sample compounds and reference antagonists (if applicable) were compared with the EC80 values of reference agonist. These were read for 180 seconds using the FLIPR^TETRA (This assay added reference agonist to respective wells-then fluorescences measurements were collected to calculate IC50 values). All plates were subjected to appropriate baseline corrections. Once baseline corrections were processed, maximum fluorescence values were exported and data manipulated to calculate percentage activation, percentage inhibition and Z′.

[2] = molecular target: S1P5 receptor (Homo sapiens (Human), UniProt Q9H228); experiment: Antagonist assay (FLIPR TETRA, inhibition of reference agonist EC80) on S1P5; assay type: cell-based; settings: tested as the citrate salt
Description: as §1, §2, §3, §4

[3] = Microsomal intrinsic clearance; settings: mouse, microsomes, mouse microsomes, test conc. 1 μM
[4] = In vitro plasma protein binding; assay type: in vitro ADME, mouse; settings: mouse plasma, test concentration 5 nM
[5] = Blood concentrations and pharmacokinetics after 1 mg/kg i.v. in mice; assay type: in vivo, mouse
Description: 1 mg/kg of the compound was injected by IV and blood was withdrawn at the times in table 1. The amount of starting compound was quantified by a standard curve using MS/MS determinations.

Sequence of S1P5 receptor (Q9H228 whole entry): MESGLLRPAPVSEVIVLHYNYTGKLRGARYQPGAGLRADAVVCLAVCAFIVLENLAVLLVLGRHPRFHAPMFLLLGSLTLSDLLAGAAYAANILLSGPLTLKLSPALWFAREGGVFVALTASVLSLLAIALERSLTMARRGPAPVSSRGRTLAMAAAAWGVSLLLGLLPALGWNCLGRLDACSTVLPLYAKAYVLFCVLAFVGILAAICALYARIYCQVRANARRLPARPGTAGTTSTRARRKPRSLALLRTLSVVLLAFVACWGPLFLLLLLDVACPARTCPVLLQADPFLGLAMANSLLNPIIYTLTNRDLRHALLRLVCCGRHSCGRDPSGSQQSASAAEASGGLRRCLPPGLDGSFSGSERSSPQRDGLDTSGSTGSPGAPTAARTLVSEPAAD
Sequence of S1P2 receptor (O95136 whole entry): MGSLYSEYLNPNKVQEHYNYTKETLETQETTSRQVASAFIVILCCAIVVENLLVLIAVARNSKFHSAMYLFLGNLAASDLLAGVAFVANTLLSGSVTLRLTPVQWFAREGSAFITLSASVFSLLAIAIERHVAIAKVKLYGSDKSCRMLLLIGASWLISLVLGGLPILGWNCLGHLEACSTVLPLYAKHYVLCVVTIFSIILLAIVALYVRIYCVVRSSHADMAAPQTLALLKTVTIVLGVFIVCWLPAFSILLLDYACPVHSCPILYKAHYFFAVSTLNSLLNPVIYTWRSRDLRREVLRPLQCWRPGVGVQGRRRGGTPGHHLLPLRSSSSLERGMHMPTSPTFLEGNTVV

In the case of `Cc1nn(C)c2nc(NNC(=O)Nc3cc(Cl)nc(Cl)c3)cc(C(C)C)c12` [JTE013, N-(1H-4-isopropyl-1,3-dimethylpyrazolo[3,4-b]pyridine-6-yl)amino-N′-(2,6-dichloropyridine-4-yl) urea], the IC50 [1] is reported as 11 nM, the IC50 [2] is reported as 1.3 nM and the microsomal CLint at 1 μM ([3]; NADPH-dependent Clint (microsomal intrinsic clearance)) is reported as 770 µL/min/mg. It also gave a half-life at 1 μM ([3]; NADPH-dependent T1/2 (half-life)) of 0.05 h, a microsomal CLint at 1 μM ([3]; NADPH-free Clint (microsomal intrinsic clearance)) of 22 µL/min/mg and a half-life at 1 μM ([3]; NADPH-free T1/2 (half-life)) of 1.75 h. For the same compound, the “mean fraction bound (%)” value [4] was 99.7%, the AUC0-inf ([5]; mouse blood, individual mice) was 88.2 ng·h/mL and 122 ng·h/mL and the “AUC0-inf Extrapolated” value ([5]; mouse blood, individual mice) was 6.50% and 2.89% and 12.1%. The AUC0-tlast ([5]; mouse blood, individual mice) was 85.6 ng·h/mL and 108 ng·h/mL, the AUMC0-inf ([5]; mouse blood, individual mice) was 153 h^2*ng/mL and 71.2 h^2*ng/mL and 652 h^2*ng/mL and the “AUMC0-inf Extrapolated” value ([5]; mouse blood, individual mice) was 68.6% and 39.9% and 88.0%. For the same compound, the AUMC0-tlast ([5]; mouse blood, individual mice) was 48.1 h^2*ng/mL and 42.8 h^2*ng/mL and 78.0 h^2*ng/mL, the C0 ([5]; mouse blood, individual mice) was 397 ng/mL and 536 ng/mL and the CL ([5]; mouse blood, individual mice) was 188 mL/min/kg and 136 mL/min/kg. The MRT0-inf ([5]; mouse blood, individual mice) was 1.40 h and 0.807 h and 5.33 h, the MRT0-tlast ([5]; mouse blood, individual mice) was 0.500 h and 0.725 h and the Terminal half-life ([5]; mouse blood, individual mice) was 6.11 h and 3.56 h and 18.7 h. For the same compound, the Vss ([5]; mouse blood, individual mice) was 12.8 L/kg and 9.16 L/kg and 43.6 L/kg, the “AUC0-inf Extrapolated, Mean S.D.” value ([5]; mouse blood, mean) was 7.15 ± 4.61% and the “AUMC0-inf Extrapolated, Mean S.D.” value ([5]; mouse blood, mean) was 65.5 ± 24.2%. For the same compound, the “AUMC0-inf, Mean S.D.” value ([5]; mouse blood, mean) was 292 ± 314 h^2*ng/mL, the “AUMC0-tlast, Mean S.D.” value ([5]; mouse blood, mean) was 56.3 ± 19.0 h^2*ng/mL and the “C0, Mean S.D.” value ([5]; mouse blood, mean) was 462 ± 70.1 ng/mL. For the same compound, the “Blood Concentrations” value ([5]; mouse, 5 min, individual mice, LLOQ = 1 ng/mL) was 231 ng/mL and 302 ng/mL, the “Blood Concentrations” value ([5]; mouse, 0.25 h, individual mice, LLOQ = 1 ng/mL) was 78.3 ng/mL and 95.8 ng/mL and the “Blood Concentrations” value ([5]; mouse, 0.5 h, individual mice, LLOQ = 1 ng/mL) was 33.8 ng/mL and 40.4 ng/mL. The “Blood Concentrations” value ([5]; mouse, 1 h, individual mice, LLOQ = 1 ng/mL) was 14.4 ng/mL and 13.4 ng/mL, the “Blood Concentrations” value ([5]; mouse, 2 h, individual mice, LLOQ = 1 ng/mL) was 3.16 ng/mL and 3.12 ng/mL and the “Blood Concentrations” value ([5]; mouse, 4 h, individual mice, LLOQ = 1 ng/mL) was 0.732^c ng/mL and 0.771^c ng/mL. For the same compound, the “Blood Concentrations” value ([5]; mouse, 6 h, individual mice, LLOQ = 1 ng/mL) was 0.496^c ng/mL and 0.643^c ng/mL, the “Blood Concentrations” value ([5]; mouse, 12 h, individual mice, LLOQ = 1 ng/mL) was “BLQ” and the “pharmacokinetics / blood levels following intravenous injection in mice (in words)” value ([5]; mouse, comparison between compounds) was “better than compound 2”. It also gave an AUC0-inf ([5]; mouse, in vivo, iv, 1 mg/kg, mouse blood, individual mice, read-out: AUC0-inf) of 109 ng·h/mL, an AUC(0-t) ([5]; mouse, in vivo, iv, 1 mg/kg, mouse blood, individual mice, read-out: AUC0-tlast) of 102 ng·h/mL and a C0 ([5]; mouse, in vivo, iv, 1 mg/kg, mouse blood, individual mice, read-out: C0) of 453 ng/mL. For the same compound, the clearance ([5]; mouse, in vivo, iv, 1 mg/kg, mouse blood, individual mice, read-out: CL (converted)) was 153 mL/min/kg, the MRT last ([5]; mouse, in vivo, iv, 1 mg/kg, mouse blood, individual mice, read-out: MRT0-tlast) was 0.471 h and the AUC0-inf ([5]; mouse, in vivo, iv, 1 mg/kg, mouse blood, mean, read-out: AUC0-inf, Mean S.D.) was 107 ± 17.2 ng·h/mL. The AUC(0-t) ([5]; mouse, in vivo, iv, 1 mg/kg, mouse blood, mean, read-out: AUC0-tlast, Mean S.D.) was 98.4 ± 11.4 ng·h/mL, the clearance ([5]; mouse, in vivo, iv, 1 mg/kg, mouse blood, mean, read-out: CL, Mean S.D. (converted)) was 159 mL/min/kg and the MRT inf ([5]; mouse, in vivo, iv, 1 mg/kg, mouse blood, mean, read-out: MRT0-inf, Mean S.D.) was 2.51 ± 2.46 h. It also gave an MRT last ([5]; mouse, in vivo, iv, 1 mg/kg, mouse blood, mean, read-out: MRT0-tlast, Mean S.D.) of 0.565 ± 0.139 h, a half-life ([5]; mouse, in vivo, iv, 1 mg/kg, mouse blood, mean, read-out: Terminal half-life, Mean S.D. (converted)) of 9.45 ± 8.09 h and a Vd ([5]; mouse, in vivo, iv, 1 mg/kg, mouse blood, mean, read-out: Vss, Mean S.D.) of 21.9 ± 18.9 L/kg. The concentration at 5 min ([5]; mouse, in vivo, iv, 1 mg/kg, mouse, 5 min, individual mice, LLOQ = 1 ng/mL, read-out: Blood Concentrations) was 282 ng/mL, the concentration at 5 min ([5]; mouse, in vivo, iv, 1 mg/kg, mouse, 5 min, mean of 3 mice, read-out: Blood Concentrations, Mean S.D.) was 272 ± 36.6 ng/mL and the concentration at 0.25 h ([5]; mouse, in vivo, iv, 1 mg/kg, mouse, 0.25 h, individual mice, LLOQ = 1 ng/mL, read-out: Blood Concentrations) was 109 ng/mL. For the same compound, the concentration at 0.25 h ([5]; mouse, in vivo, iv, 1 mg/kg, mouse, 0.25 h, mean of 3 mice, read-out: Blood Concentrations, Mean S.D.) was 94.4 ± 15.4 ng/mL, the concentration at 0.5 h ([5]; mouse, in vivo, iv, 1 mg/kg, mouse, 0.5 h, individual mice, LLOQ = 1 ng/mL, read-out: Blood Concentrations) was 44.4 ng/mL and the concentration at 0.5 h ([5]; mouse, in vivo, iv, 1 mg/kg, mouse, 0.5 h, mean of 3 mice, read-out: Blood Concentrations, Mean S.D.) was 39.5 ± 5.35 ng/mL. The concentration at 1 h ([5]; mouse, in vivo, iv, 1 mg/kg, mouse, 1 h, individual mice, LLOQ = 1 ng/mL, read-out: Blood Concentrations) was 11.8 ng/mL, the concentration at 1 h ([5]; mouse, in vivo, iv, 1 mg/kg, mouse, 1 h, mean of 3 mice, read-out: Blood Concentrations, Mean S.D.) was 13.2 ± 1.31 ng/mL and the concentration at 2 h ([5]; mouse, in vivo, iv, 1 mg/kg, mouse, 2 h, individual mice, LLOQ = 1 ng/mL, read-out: Blood Concentrations) was 2.72 ng/mL. It also gave a concentration at 2 h ([5]; mouse, in vivo, iv, 1 mg/kg, mouse, 2 h, mean of 3 mice, read-out: Blood Concentrations, Mean S.D.) of 3 ± 0.243 ng/mL, a concentration at 4 h ([5]; mouse, in vivo, iv, 1 mg/kg, mouse, 4 h, individual mice, LLOQ = 1 ng/mL, read-out: Blood Concentrations) of 1.01 ng/mL and a concentration at 4 h ([5]; mouse, in vivo, iv, 1 mg/kg, mouse, 4 h, mean (n = 2 for Cmpd-1), read-out: Blood Concentrations, Mean S.D.) of 0.838 ± 0.151 ng/mL. The concentration at 6 h ([5]; mouse, in vivo, iv, 1 mg/kg, mouse, 6 h, individual mice, LLOQ = 1 ng/mL, read-out: Blood Concentrations) was 0.805 ng/mL, the concentration at 6 h ([5]; mouse, in vivo, iv, 1 mg/kg, mouse, 6 h, mean (n = 2 for Cmpd-1), read-out: Blood Concentrations, Mean S.D.) was 0.648 ± 0.155 ng/mL and the concentration at 12 h ([5]; mouse, in vivo, iv, 1 mg/kg, mouse, 12 h, individual mice, LLOQ = 1 ng/mL, read-out: Blood Concentrations) was 0.547 ng/mL.
